Assay results published in patent US11046660B2, “Compounds and their use as PDE4 activators” (MIRONID LIMITED, priority 2016, dated 2021).
Each block holds one molecule with its values, some of them ahead of it.

What was measured:
MDCK cells [1] = experiment: Inhibition of in vitro cyst formation in 3D MDCK culture, PGE2-stimulated (Experiment 3, Protocol D); format: cell-based, canine; details: 300 nM PGE2-stimulated, FIG. 3
Source text: In this study, the well-established three-dimensional (3D) MDCK cell model is used to investigate the effects of PDE4 long form activators on the formation of kidney cysts and evaluate their potential in the treatment of polycystic kidney diseases. 3D cysts are generated based on the method of Mao et al. (Mao, Z., Streets, A. J., Ong, A. C. M. Am. J. Physiol. Renal Physiol. 300(6): F1375-F1384, 2011), with some modifications.
Type 1 collagen (Invitrogen) is first prepared on ice by neutralising an acidic stock solution (3 mg/ml) with 17 mM NaOH and diluting it to 1 mg/ml with DMEM, supplemented with 2% (v/v) FBS, 2 mM L-glutamine, 1,000 U penicillin and 1,000 μg streptomycin (DMEM-2% FBS). […]
Phase-contrast images are obtained on the Motic microscope (×4 magnification). 8 images are taken per condition and the cyst diameter measured (up to 150 cyst measurements per well). Cyst spheroid volume is calculated using the formula 4/3πr^3 where r is the radius of the spheroid. A mean cyst volume is then calculated per well. The mean cyst volume and standard deviation between the duplicate wells is then calculated and expressed as a % Cyst Volume compared to the vehicle only (DMSO+300 nM PGE2) control wells.

full-length human PDE4D5 = target: T1, full-length human PDE4D5 (Homo sapiens, UniProt Q08499); experiment: PDE4D5 long form enzyme activation radio-assay (Experiment 1, Protocol A or B); format: biochemical; details: 30 μM, mean % increase in counts over basal activity
T1 construct: stably expressed the full-length human PDE4D5, PDE4A4 and PDE4B1 long isoforms; made in house; cytosol fraction of cell lysate
T1 sequence (Q08499 1-745 isoform Q08499-6): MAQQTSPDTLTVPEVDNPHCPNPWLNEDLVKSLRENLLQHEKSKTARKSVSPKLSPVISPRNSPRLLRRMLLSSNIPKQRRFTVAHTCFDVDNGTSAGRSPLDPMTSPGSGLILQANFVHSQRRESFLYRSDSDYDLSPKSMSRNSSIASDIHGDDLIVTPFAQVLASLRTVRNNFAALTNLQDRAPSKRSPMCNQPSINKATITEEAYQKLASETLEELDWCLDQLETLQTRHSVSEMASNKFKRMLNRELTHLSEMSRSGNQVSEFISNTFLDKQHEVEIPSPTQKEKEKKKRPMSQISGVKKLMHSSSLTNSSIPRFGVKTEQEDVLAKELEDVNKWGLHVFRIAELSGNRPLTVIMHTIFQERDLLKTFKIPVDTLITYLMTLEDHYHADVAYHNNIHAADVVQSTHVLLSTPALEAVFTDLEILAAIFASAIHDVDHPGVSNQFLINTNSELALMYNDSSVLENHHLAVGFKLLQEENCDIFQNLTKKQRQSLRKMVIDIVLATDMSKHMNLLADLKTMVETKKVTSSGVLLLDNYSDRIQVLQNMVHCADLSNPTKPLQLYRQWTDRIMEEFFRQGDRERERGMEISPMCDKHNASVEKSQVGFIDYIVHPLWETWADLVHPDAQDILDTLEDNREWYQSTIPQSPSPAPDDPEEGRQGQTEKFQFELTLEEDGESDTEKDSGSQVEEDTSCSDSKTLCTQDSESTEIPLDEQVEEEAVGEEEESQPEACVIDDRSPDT
Source text: (§1) Experiment 1: Identification of PDE4 Long Form Activators of the Present Invention Using Full-Length Human PDE4 Isoforms PDE4D5, PDE4A4, PDE4B1 and PDE4B2
(§2) HEK 293 cells were transfected with pDEST™ PDE4 expression vectors using Lipofectamine LTX/Plus reagent (Invitrogen) as outlined by the manufacturer and clonal isolates expanded to obtain cell lines that stably expressed the full-length human PDE4D5, PDE4A4 and PDE4B1 long isoforms and the full length human PDE4B2 short isoform. These were called the HEK-PDE4D5, HEK-PDE4A4, HEK-PDE4B1 and HEK-PDE4B2 cell lines, respectively.
(§3) HEK-PDE4D5 cells were seeded out in 100 mm plates and incubated at 37° C. in an atmosphere of 5% CO2, 95% air. Cell lysates were prepared using KHEM buffer [50 mM KCl, 10 mM EGTA, 50 mM HEPES (pH 7.2), 1.92 mM MgCl2].
(§4) To prepare the cell lysates, the 100 mm plates containing the cells were placed on ice and washed with ice-cold PBS (phosphate buffered saline, pH 7.4). KHEM buffer (500 μl) was added to the cells. Cells were then scraped off the plate and triturated using a needle (BD Microlance™ 0.8, 40 mm). The lysed cells were then centrifuged at 2000 rpm for 10 minutes to remove cell debris and the supernatant (cell lysate containing recombinant PDE4D5) was transferred to a fresh tube and kept on ice.
(§5) The cell lysate containing recombinant PDE4D5 was transferred into a centrifuge tube and placed into an ultracentrifuge (BECKMAN COULTER) and spun at high speed (100,000 g) for 30 minutes at 4° C. The cytosol fraction was then collected and its protein amount determined using a BCA protein assay.
(§6) PDE assays were performed using a final concentration of 10 mM Tris/5 mM MgCl2 and 1 μM [^3H]-cAMP (Perkin Elmer) plus PDE4D5 cell lysate cytosol fraction, containing over-expressed PDE4D5, with and without test compound. Incubations were performed at 30° C. for 5 minutes. The samples were then placed in a boiling water bath for 2 minutes to denature the PDE enzyme, and returned to ice. Samples were allowed to cool for 10 min after which snake venom 5′-nucleotidase (25 μl, 1 mg/ml; Sigma) was added. The tubes were vortexed and incubated in a water bath at 30° C. for 10 minutes, to attain conversion of [^3H]-5′-AMP to [^3H]-adenosine, and then placed on ice. Dowex ion exchange resin (Sigma) prepared as a 1:1 Dowex: water stock was thoroughly re-suspended and diluted 2:1 with ethanol. The resulting Dowex suspension (0.4 ml) was added to each tube. Tubes were vortexed to mix and then incubated on ice for at least 15 minutes before a final vortex. The Dowex resin was pelleted by centrifugation at 13,000 g at 4° C. for 3 minutes and 150 μl of the supernatant was removed to an Eppendorf tube containing 1 ml of ScintiSafe3 scintillation fluid (Fisher). Tubes were vortexed thoroughly to mix and the recovered [^3H]-adenosine was quantified by measuring counts over 1 minute in a scintillation counter.
(§7) The % increase in counts in the presence of test compound at a particular concentration indicates the % increase in enzyme activity at that concentration.
(§8) PDE assays were performed in thin walled V-bottomed 96-well plates. The assays were performed at a final concentration of 10 mM Tris/5 mM MgCl2 plus PDE4D5 cell lysate cytosol fraction, containing over-expressed PDE4D5, with and without test compound. The lysate/compound mix were incubated together for 15 min at room temperature on an orbital shaker prior to addition of [^3H] cAMP (final concentration 1 μM [^3H] cAMP; Perkin Elmer) to a final volume of 50 μl per reaction. The reactions were then incubated for 10 minutes at 30° C., terminated by heating for 2 min at 95° C. and allowed to cool. Snake venom (12.5 μl of 1 mg/ml; Crotalus atrox, Sigma) was then added and the plates were agitated and incubated for a further 15 minutes at 30° C. […]

full-length human PDE4B2 = target: T2, full-length human PDE4B2 (Homo sapiens, UniProt Q07343); experiment: PDE4B2 short form enzyme activation radio-assay (Experiment 1, Protocol A or B); format: biochemical; details: 30 μM, mean % increase in counts over basal activity
T2 construct: and the full length human PDE4B2 short isoform; made in house; cytosol fraction of cell lysate
T2 sequence (Q07343 1-564 isoform Q07343-2): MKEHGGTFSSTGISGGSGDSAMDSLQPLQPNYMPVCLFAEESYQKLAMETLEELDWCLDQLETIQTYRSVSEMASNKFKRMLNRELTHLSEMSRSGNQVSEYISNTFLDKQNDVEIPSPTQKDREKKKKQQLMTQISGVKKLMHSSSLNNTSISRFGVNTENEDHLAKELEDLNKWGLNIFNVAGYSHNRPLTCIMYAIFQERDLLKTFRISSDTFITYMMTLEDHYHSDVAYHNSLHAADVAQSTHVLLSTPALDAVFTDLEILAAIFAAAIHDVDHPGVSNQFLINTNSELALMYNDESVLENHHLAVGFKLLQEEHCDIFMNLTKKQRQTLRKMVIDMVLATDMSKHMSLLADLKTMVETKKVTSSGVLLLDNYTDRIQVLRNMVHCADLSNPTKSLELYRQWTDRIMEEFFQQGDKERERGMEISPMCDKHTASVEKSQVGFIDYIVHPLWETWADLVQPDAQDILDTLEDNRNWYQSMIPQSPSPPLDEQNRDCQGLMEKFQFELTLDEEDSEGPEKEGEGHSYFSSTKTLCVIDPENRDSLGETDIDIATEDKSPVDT
Source text: as §1, §2, §3, §4, §5, §6, §7, §8

full-length human PDE4B1 = target: T3, full-length human PDE4B1 (Homo sapiens, UniProt Q07343); experiment: PDE4B1 long form enzyme activation radio-assay (Experiment 1, Protocol A or B); format: biochemical; details: mean % increase in counts over basal activity
T3 construct: stably expressed the full-length human PDE4D5, PDE4A4 and PDE4B1 long isoforms; made in house; cytosol fraction of cell lysate
T3 sequence (Q07343 whole entry, canonical isoform): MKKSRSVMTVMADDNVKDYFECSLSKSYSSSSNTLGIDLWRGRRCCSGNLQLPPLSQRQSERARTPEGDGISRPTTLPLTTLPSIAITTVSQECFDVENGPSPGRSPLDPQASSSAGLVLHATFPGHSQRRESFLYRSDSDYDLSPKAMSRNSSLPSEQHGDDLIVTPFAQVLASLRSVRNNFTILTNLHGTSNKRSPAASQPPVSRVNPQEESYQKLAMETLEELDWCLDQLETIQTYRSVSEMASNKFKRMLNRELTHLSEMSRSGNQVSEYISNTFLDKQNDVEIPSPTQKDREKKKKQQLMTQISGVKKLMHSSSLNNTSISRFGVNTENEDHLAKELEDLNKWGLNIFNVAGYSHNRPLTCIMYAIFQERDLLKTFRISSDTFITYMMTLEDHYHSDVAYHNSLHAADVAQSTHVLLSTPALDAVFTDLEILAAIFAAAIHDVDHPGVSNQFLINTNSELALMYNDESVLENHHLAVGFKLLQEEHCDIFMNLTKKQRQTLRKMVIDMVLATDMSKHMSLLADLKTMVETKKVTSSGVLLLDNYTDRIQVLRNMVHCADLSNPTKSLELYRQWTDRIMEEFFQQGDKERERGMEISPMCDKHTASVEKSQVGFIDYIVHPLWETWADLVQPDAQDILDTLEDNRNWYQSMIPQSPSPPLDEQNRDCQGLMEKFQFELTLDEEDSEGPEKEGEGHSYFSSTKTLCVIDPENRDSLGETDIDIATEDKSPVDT
Source text: as §1, §2, §3, §4, §5, §6, §7, §8

MDCK cells [2] = experiment: Reduction of intracellular cAMP levels in forskolin-stimulated MDCK cells (Experiment 2); format: cell-based, canine; details: compound 10 μM for 10 min prior to forskolin 10 μM for 2 min; FIG. 2
Protocol: MDCK cells were seeded at 100,000 cells per well, and left to adhere overnight. The cells were then treated with the test compound (10 μM) for 10 minutes, prior to stimulation with forskolin (10 μM, Sigma) for 2 minutes. Media was aspirated, and hydrochloric acid (0.1M) was added to lyse the cells. The cAMP assay (Enzo Life Sciences) was performed according to the manufacturer's instructions.

- activation at 30 µM (full-length human PDE4D5; Protocol B): 101%
- activation at 30 µM (full-length human PDE4B2; Protocol B): -7.9%
Compound: CNC(=O)c1nc(-c2ccc(Cl)c(F)c2)nn1CC(=O)NCc1ccc2[nH]ncc2c1 [Example 28, 3-(4-chloro-3-fluorophenyl)-1-({[(1H-indazol-5-yl)methyl]carbamoyl}methyl)-N-methyl-1H-1,2,4-triazole-5-carboxamide]
- cyst formation in 3D culture of MDCK cells (in words) (MDCK cells [1]): inhibition of cyst formation

- activation at 30 µM (full-length human PDE4B1; Protocol B): 80.5%
Compound: CCOC(=O)c1nc(-c2ccc(Cl)c(F)c2)nn1CC(=O)NCc1cccc(F)c1 [Example 4, Ethyl 3-(4-chloro-3-fluorophenyl)-1-{[(3-fluorobenzyl)carbamoyl]methyl}-1H-1,2,4-triazole-5-carboxylate]

- activation at 30 µM (full-length human PDE4B1; Protocol A): 58.5%
Compound: COc1cccc(CNC(=O)Cn2nc(-c3ccc(Cl)c(F)c3)nc2C(N)=O)c1 [Example 9, 3-(4-chloro-3-fluorophenyl)-1-{[(3-methoxybenzyl)carbamoyl]methyl}-1H-1,2,4-triazole-5-carboxamide]

- activation at 30 µM (full-length human PDE4B1; Protocol B): 52.2%
Compound: COc1cccc(CNC(=O)Cn2nc(-c3ccc(Cl)c(F)c3)nc2C#N)c1 [Example 16, 2-[3-(4-chloro-3-fluorophenyl)-5-cyano-1H-1,2,4-triazol-1-yl]-N-(3-methoxybenzyl)acetamide]

- activation at 30 µM (full-length human PDE4D5; Protocol A): 105%
- activation at 30 µM (full-length human PDE4B2; Protocol A): 19.5%
Compound: COC(=O)c1nc(-c2ccc(Cl)c(F)c2)nn1CC(=O)NCc1cccc(F)c1 [Example 1, Methyl 3-(4-chloro-3-fluorophenyl)-1-{[(3-fluorobenzyl)carbamoyl]methyl}-1H-1,2,4-triazole-5-carboxylate]
- intracellular cAMP levels in MDCK cells (in words) (MDCK cells [2]): reduction in intracellular cAMP levels

- activation at 30 µM (full-length human PDE4B1; Protocol B): 89.2%
Compound: CNC(=O)c1nc(-c2ccc(Cl)c(F)c2)nn1CC(=O)NCc1cccc(OC)c1 [Example 12, 3-(4-chloro-3-fluorophenyl)-1-{[(3-methoxybenzyl)carbamoyl]methyl}-N-methyl-1H-1,2,4-triazole-5-carboxamide]

- activation at 30 µM (full-length human PDE4B1; Protocol B): 44%
Compound: CCOC(=O)c1nc(-c2ccc(Cl)c(F)c2)nn1CC(=O)NCc1cccc(OC)c1 [Example 5, Ethyl 3-(4-chloro-3-fluorophenyl)-1-{[(3-methoxybenzyl)carbamoyl]methyl}-1H-1,2,4-triazole-5-carboxylate]

- activation at 30 µM (full-length human PDE4B1; Protocol A): 84.1%
Compound: CN(C)C(=O)c1nc(-c2ccc(Cl)c(F)c2)nn1CC(=O)NCc1cccc(F)c1 [Example 11, 3-(4-chloro-3-fluorophenyl)-1-{[(3-fluorobenzyl)carbamoyl]methyl}-N,N-dimethyl-1H-1,2,4-triazole-5-carboxamide]

- activation at 30 µM (full-length human PDE4B1; Protocol A): 50.9%
Compound: NC(=O)c1nc(-c2ccc(Cl)c(F)c2)nn1CC(=O)NCc1cccc(F)c1 [Example 8, 3-(4-chloro-3-fluorophenyl)-1-{[(3-fluorobenzyl)carbamoyl]methyl}-1H-1,2,4-triazole-5-carboxamide]

- activation at 30 µM (full-length human PDE4B1; Protocol B): 85.1%
- activation at 30 µM (full-length human PDE4B2; Protocol B): 23.3%
Compound: CNC(=O)c1nc(-c2ccc(Cl)c(F)c2)nn1CC(=O)NCc1cccc(F)c1 [Example 10, 3-(4-chloro-3-fluorophenyl)-1-{[(3-fluorobenzyl)carbamoyl]methyl}-N-methyl-1H-1,2,4-triazole-5-carboxamide]

- activation at 30 µM (full-length human PDE4D5; Protocol B): 75.1%
- activation at 30 µM (full-length human PDE4B2; Protocol B): 7.6%
Compound: CCOC(=O)c1cc(-c2ccc(Cl)cc2)nn1CC(=O)NCc1cccc(OC)c1 [Example 27, Ethyl 3-(4-chlorophenyl)-1-{[(3-methoxybenzyl)carbamoyl]methyl}-1H-pyrazole-5-carboxylate]

- activation at 30 µM (full-length human PDE4D5; Protocol B): 38.2%
- activation at 30 µM (full-length human PDE4B2; Protocol B): 17.1%
Compound: CNC(=O)c1cc(-c2ccc(Cl)c(F)c2)nn1CC(=O)NCc1cccc(F)c1 [Example 26, 3-(4-chloro-3-fluorophenyl)-1-{[(3-fluorobenzyl)carbamoyl]methyl}-N-methyl-1H-pyrazole-5-carboxamide]
